# pIC50: −log10 of the molar value.
# Target: CB1 (CNR1) (Homo sapiens, UniProt P21554)
# Test: cAMP CNR1 Hunter cell line antagonist assay (CB1 assay)
# Format: cell-based
# Details: antagonist mode, cAMP CNR1 Hunter cells, EC80 agonist; read-out: CB1 assay, Efficacy (IC50)
# Procedure: cAMP CNR1 Hunter cell line (Eurofins DiscoveryX) were expanded from freezer stocks and seeded in a total volume of 20 μL into white walled, 384-well microplates and incubated at 37° C. for the appropriate time prior to testing. For antagonist determination, cell media was aspirated from cells and replaced with 10 μL 1:1 HBSS/Hepes:cAMP XS+Ab reagent. 5 μL of 4× compound was added to the cells and incubated at 37° C. for 30 minutes. 5 μL of 4× EC80 agonist was added to cells and incubated at 37° C. for 30 minutes. After appropriate compound incubation, assay signal was generated through incubation with 20 μL cAMP XS+ED/CL lysis cocktail for one hour followed by incubation with 20 μL cAMP XS+EA reagent for three hours at room temperature. Microplates were read following signal generation with a PerkinElmer Envision™ instrument for chemiluminescent signal detection. Compound activity (IC50) was analyzed using CBIS data analysis suite (ChemInnovation, CA).
# CB1 (CNR1), sequence (P21554 whole entry): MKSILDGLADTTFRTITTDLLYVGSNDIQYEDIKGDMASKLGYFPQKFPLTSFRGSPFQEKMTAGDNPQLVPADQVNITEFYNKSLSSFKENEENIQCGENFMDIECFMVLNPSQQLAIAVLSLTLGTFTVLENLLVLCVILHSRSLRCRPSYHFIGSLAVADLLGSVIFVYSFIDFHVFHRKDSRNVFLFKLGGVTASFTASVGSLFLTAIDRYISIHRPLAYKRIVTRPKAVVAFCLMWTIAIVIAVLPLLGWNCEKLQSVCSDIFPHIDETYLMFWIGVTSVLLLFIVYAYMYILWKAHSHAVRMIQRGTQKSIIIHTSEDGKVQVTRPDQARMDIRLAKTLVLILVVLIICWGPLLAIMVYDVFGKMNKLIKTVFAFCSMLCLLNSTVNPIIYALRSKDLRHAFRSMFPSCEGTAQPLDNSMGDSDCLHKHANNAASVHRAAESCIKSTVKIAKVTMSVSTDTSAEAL
row,pIC50,SMILES
1,4.60 to 6.00,CCC1Oc2cc(S(=O)(=O)Nc3ccc(C)c(F)c3)c(Cl)cc2NC1=O (stereo not drawn) [BC19212]
2,≤ 4.60,CCC1Oc2cc(S(=O)(=O)Nc3cccc(SC)c3)c(Cl)cc2NC1=O (stereo not drawn) [BC19213]
3,≤ 4.60,CCC1Oc2cc(S(=O)(=O)Nc3cc(Cl)ccc3C)c(Cl)cc2NC1=O (stereo not drawn) [BC19215]
4,> 6.00,CCc1ccc(NS(=O)(=O)c2cc3c(cc2Br)NC(=O)C(C)O3)cc1 (stereo not drawn) [BC19216]
5,≤ 4.60,CCC1Oc2cc(S(=O)(=O)Nc3cccc(F)c3)c(Br)cc2NC1=O (stereo not drawn) [BC19220]
6,4.60 to 6.00,CCC1Oc2cc(S(=O)(=O)Nc3cccc(Cl)c3)c(Br)cc2NC1=O (stereo not drawn) [BC19221]
7,≤ 4.60,CCC1Oc2cc(S(=O)(=O)Nc3ccc(C)cc3)c(Br)cc2NC1=O (stereo not drawn) [BC19224]
8,≤ 4.60,Cc1ccc(NS(=O)(=O)c2cc(Br)cc3c2OC(C)C(=O)N3)cc1Cl (stereo not drawn) [BC19225]
9,≤ 4.60,CC(C)CNS(=O)(=O)c1cc(Br)cc2c1OC(C)C(=O)N2 (stereo not drawn) [BC19227]
10,≤ 4.60,CCC1Oc2c(cc(Br)cc2S(=O)(=O)Nc2cccc(F)c2)NC1=O (stereo not drawn) [BC19231]
11,≤ 4.60,CCC1Oc2c(cc(Br)cc2S(=O)(=O)Nc2cccc(Cl)c2)NC1=O (stereo not drawn) [BC19232]
12,≤ 4.60,CCC1Oc2c(cc(Br)cc2S(=O)(=O)Nc2ccc(C)cc2)NC1=O (stereo not drawn) [BC19234]
13,4.60 to 6.00,COc1ccc(NS(=O)(=O)c2cc3c(cc2Cl)NC(=O)C(C)O3)cc1Cl (stereo not drawn) [BC19280]
14,≤ 4.60,CCOc1ccc(NS(=O)(=O)c2cc3c(cc2Cl)NC(=O)C(C)O3)cc1 (stereo not drawn) [BC19281]
15,4.60 to 6.00,CCC1Oc2cc(S(=O)(=O)Nc3cccc(C(C)=O)c3)c(Cl)cc2NC1=O (stereo not drawn) [BC19282]
16,4.60 to 6.00,CCc1cccc(NS(=O)(=O)c2cc3c(cc2Br)NC(=O)C(C)O3)c1 (stereo not drawn) [BC19283]
17,≤ 4.60,CC1Oc2cc(S(=O)(=O)Nc3ccc(F)c(F)c3)c(Br)cc2NC1=O (stereo not drawn) [BC19284]

row,pIC50,SMILES
1,4.60 to 6.00,CC1Oc2cc(S(=O)(=O)Nc3ccc(F)cc3Cl)c(Br)cc2NC1=O (stereo not drawn) [BC19285]
2,≤ 4.60,CCC1Oc2cc(S(=O)(=O)Nc3ccc(Cl)cc3)c(Br)cc2NC1=O (stereo not drawn) [BC19286]
3,4.60 to 6.00,CCc1cccc(NS(=O)(=O)c2cc(Br)cc3c2OC(C)C(=O)N3)c1 (stereo not drawn) [BC19288]
4,≤ 4.60,CC1Oc2c(cc(Br)cc2S(=O)(=O)Nc2ccc(F)cc2Cl)NC1=O (stereo not drawn) [BC19289]
5,≤ 4.60,CCC1Oc2c(cc(Br)cc2S(=O)(=O)Nc2ccc(Cl)cc2)NC1=O (stereo not drawn) [BC19290]
6,≤ 4.60,CC1Oc2c(cc(Cl)cc2S(=O)(=O)Nc2ccccc2)NC1=O (stereo not drawn) [BC19291]
7,4.60 to 6.00,COc1ccc(NS(=O)(=O)c2cc(Cl)cc3c2OC(C)C(=O)N3)cc1Cl (stereo not drawn) [BC19292]
8,≤ 4.60,CC(C)NS(=O)(=O)c1cc(Cl)cc2c1OC(C)C(=O)N2 (stereo not drawn) [BC19293]
9,4.60 to 6.00,CCNS(=O)(=O)c1cc(Cl)cc2c1OC(C)C(=O)N2 (stereo not drawn) [BC19294]
10,≤ 4.60,CC1Oc2cc(S(=O)(=O)Nc3ccc(OC(F)(F)F)cc3)c(Cl)cc2NC1=O (stereo not drawn) [BC19354]
11,4.60 to 6.00,CCOc1ccc(NS(=O)(=O)c2cc(Cl)cc3c2OC(C)C(=O)N3)cc1 (stereo not drawn) [BC19355]
12,≤ 4.60,CC1Oc2cc(S(=O)(=O)NCc3ccc(F)cc3F)c(Br)cc2NC1=O (stereo not drawn) [BC19356]
13,≤ 4.60,CC1Oc2c(cc(Br)cc2S(=O)(=O)NCc2ccc(F)cc2F)NC1=O (stereo not drawn) [BC19362]
14,4.60 to 6.00,CC1Oc2c(cc(Br)cc2S(=O)(=O)NCc2ccc(OC(F)(F)F)cc2)NC1=O (stereo not drawn) [BC19363]
15,4.60 to 6.00,CC1Oc2c(cc(Br)cc2S(=O)(=O)NCCc2ccc(OC(F)(F)F)cc2)NC1=O (stereo not drawn) [BC19364]
16,4.60 to 6.00,CC1Oc2c(cc(Br)cc2S(=O)(=O)NCc2ccc(C(F)(F)F)cc2)NC1=O (stereo not drawn) [BC19365]
17,≤ 4.60,CC1Oc2c(cc(Cl)cc2S(=O)(=O)Nc2ccc(OC(F)(F)F)cc2)NC1=O (stereo not drawn) [BC19394]

# Continued, molecule first:
row,SMILES,pIC50
1,CCCNS(=O)(=O)c1cc2c(cc1Cl)NC(=O)C(CC)O2 (stereo not drawn) [BC19214],≤ 4.60
2,CC1Oc2cc(S(=O)(=O)N3CCOCC3)c(Br)cc2NC1=O (stereo not drawn) [BC19217],≤ 4.60
3,CC(C)CNS(=O)(=O)c1cc2c(cc1Br)NC(=O)C(C)O2 (stereo not drawn) [BC19218],4.60 to 6.00
4,CC1Oc2cc(S(=O)(=O)N3CCN(C)CC3)c(Br)cc2NC1=O (stereo not drawn) [BC19219],≤ 4.60
5,CCCNS(=O)(=O)c1cc2c(cc1Br)NC(=O)C(CC)O2 (stereo not drawn) [BC19222],4.60 to 6.00
6,CCC1Oc2cc(S(=O)(=O)NC3CCCCC3)c(Br)cc2NC1=O (stereo not drawn) [BC19223],4.60 to 6.00
7,CC1Oc2c(cc(Br)cc2S(=O)(=O)N2CCOCC2)NC1=O (stereo not drawn) [BC19226],≤ 4.60
8,CC1Oc2c(cc(Br)cc2S(=O)(=O)N2CCN(C)CC2)NC1=O (stereo not drawn) [BC19228],4.60 to 6.00
9,CCCNS(=O)(=O)c1cc(Br)cc2c1OC(CC)C(=O)N2 (stereo not drawn) [BC19229],≤ 4.60
10,CCC1Oc2c(cc(Br)cc2S(=O)(=O)NCc2ccccc2)NC1=O (stereo not drawn) [BC19230],≤ 4.60
11,CCC1Oc2c(cc(Br)cc2S(=O)(=O)NC2CCCCC2)NC1=O (stereo not drawn) [BC19233],≤ 4.60
12,CC1Nc2cc(S(=O)(=O)N3CCCC3)ccc2NC1=O (stereo not drawn) [BC19235],≤ 4.60
13,CNC(=O)N1c2cc(S(=O)(=O)N3CCCC3)ccc2NC(=O)C1C (stereo not drawn) [BC19236],≤ 4.60
14,CCC1Oc2cc(S(=O)(=O)NCc3ccccc3)c(Br)cc2NC1=O (stereo not drawn) [BC19287],4.60 to 6.00
15,CC(=O)N1CC(=O)Nc2ccc(S(=O)(=O)N3CCCC3)cc21 [BC19295],≤ 4.60
16,CC1C(=O)Nc2ccc(S(=O)(=O)N3CCCC3)cc2N1C (stereo not drawn) [BC19296],4.60 to 6.00
17,CC1C(=O)Nc2ccc(S(=O)(=O)N3CCCC3)cc2N1C(=O)N1CCOCC1 (stereo not drawn) [BC19297],≤ 4.60
18,CC(C)NC(=O)N1c2cc(S(=O)(=O)N3CCCC3)ccc2NC(=O)C1C (stereo not drawn) [BC19298],≤ 4.60
19,COCCNC(=O)N1c2cc(S(=O)(=O)N3CCCC3)ccc2NC(=O)C1C (stereo not drawn) [BC19299],4.60 to 6.00
20,NS(=O)(=O)c1ccc2c(c1)N1CCCC1C(=O)N2 (stereo not drawn) [BC19300],≤ 4.60
21,CC1Oc2cc(S(=O)(=O)NCc3ccc(OC(F)(F)F)cc3)c(Br)cc2NC1=O (stereo not drawn) [BC19357],4.60 to 6.00
22,CC1Oc2cc(S(=O)(=O)NCc3ccc(C(F)(F)F)cc3)c(Br)cc2NC1=O (stereo not drawn) [BC19358],4.60 to 6.00
23,CC1Oc2cc(S(=O)(=O)NCCc3ccc(OC(F)(F)F)cc3)c(Br)cc2NC1=O (stereo not drawn) [BC19359],4.60 to 6.00
24,CC1Oc2cc(S(=O)(=O)NC3CCC(O)CC3)c(Br)cc2NC1=O (stereo not drawn) [BC19360],≤ 4.60
25,CC1Oc2cc(S(=O)(=O)NC3CCC(C(C)(C)C)CC3)c(Br)cc2NC1=O (stereo not drawn) [BC19361],4.60 to 6.00
26,CC1Oc2c(cc(Br)cc2S(=O)(=O)NC2CCC(O)CC2)NC1=O (stereo not drawn) [BC19366],≤ 4.60
27,CC1Oc2c(cc(Br)cc2S(=O)(=O)NC2CCC(C(C)(C)C)CC2)NC1=O (stereo not drawn) [BC19367],≤ 4.60

row,SMILES,pIC50
1,CCC1Oc2cc(S(=O)(=O)NCc3ccc(F)cc3F)c(Br)cc2NC1=O (stereo not drawn) [BC19368],≤ 4.60
2,CCC1Oc2cc(S(=O)(=O)NCc3ccc(OC(F)(F)F)cc3)c(Br)cc2NC1=O (stereo not drawn) [BC19369],≤ 4.60
3,CCC1Oc2cc(S(=O)(=O)NCc3ccc(C(F)(F)F)cc3)c(Br)cc2NC1=O (stereo not drawn) [BC19370],≤ 4.60
4,CCC1Oc2cc(S(=O)(=O)Nc3ccc(C(F)(F)F)cc3Cl)c(Br)cc2NC1=O (stereo not drawn) [BC19371],≤ 4.60
5,CCC1Oc2cc(S(=O)(=O)NC3CCC(O)CC3)c(Br)cc2NC1=O (stereo not drawn) [BC19372],≤ 4.60
6,CCC1Oc2cc(S(=O)(=O)NCCc3ccc(OC(F)(F)F)cc3)c(Br)cc2NC1=O (stereo not drawn) [BC19373],≤ 4.60
7,CCC1Oc2c(cc(Br)cc2S(=O)(=O)NCc2ccc(F)cc2F)NC1=O (stereo not drawn) [BC19374],≤ 4.60
8,CCC1Oc2c(cc(Br)cc2S(=O)(=O)NCc2ccc(OC(F)(F)F)cc2)NC1=O (stereo not drawn) [BC19375],4.60 to 6.00
9,CCC1Oc2c(cc(Br)cc2S(=O)(=O)NCCc2ccc(OC(F)(F)F)cc2)NC1=O (stereo not drawn) [BC19376],4.60 to 6.00
10,CCC1Oc2c(cc(Br)cc2S(=O)(=O)NCc2ccc(C(F)(F)F)cc2)NC1=O (stereo not drawn) [BC19377],≤ 4.60
11,CCC1Oc2c(cc(Br)cc2S(=O)(=O)NC2CCC(O)CC2)NC1=O (stereo not drawn) [BC19378],4.60 to 6.00
12,CCC1Oc2c(cc(Br)cc2S(=O)(=O)NC2CCC(C(C)(C)C)CC2)NC1=O (stereo not drawn) [BC19379],4.60 to 6.00
13,CC(C)(C)C1CCC(NS(=O)(=O)c2cc(Br)cc3c2OCC(=O)N3)CC1 (stereo not drawn) [BC19380],≤ 4.60
14,O=C1COc2c(cc(Br)cc2S(=O)(=O)NC2CCC(O)CC2)N1 (stereo not drawn) [BC19381],≤ 4.60
15,O=C1COc2c(cc(Br)cc2S(=O)(=O)NCc2ccc(C(F)(F)F)cc2)N1 [BC19382],4.60 to 6.00
16,O=C1COc2c(cc(Br)cc2S(=O)(=O)NCCc2ccc(OC(F)(F)F)cc2)N1 [BC19383],≤ 4.60
17,O=C1COc2c(cc(Br)cc2S(=O)(=O)Nc2ccc(C(F)(F)F)cc2Cl)N1 [BC19384],≤ 4.60
18,O=C1COc2c(cc(Br)cc2S(=O)(=O)NCc2ccc(OC(F)(F)F)cc2)N1 [BC19385],≤ 4.60
19,O=C1COc2c(cc(Br)cc2S(=O)(=O)NCc2ccc(F)cc2F)N1 [BC19386],≤ 4.60
20,O=C1COc2cc(S(=O)(=O)NCCc3ccc(OC(F)(F)F)cc3)c(Br)cc2N1 [BC19387],≤ 4.60
21,CC(C)(C)C1CCC(NS(=O)(=O)c2cc3c(cc2Br)NC(=O)CO3)CC1 (stereo not drawn) [BC19388],≤ 4.60
22,O=C1COc2cc(S(=O)(=O)NC3CCC(O)CC3)c(Br)cc2N1 (stereo not drawn) [BC19389],≤ 4.60
23,O=C1COc2cc(S(=O)(=O)Nc3ccc(C(F)(F)F)cc3Cl)c(Br)cc2N1 [BC19390],≤ 4.60
24,O=C1COc2cc(S(=O)(=O)NCc3ccc(C(F)(F)F)cc3)c(Br)cc2N1 [BC19391],≤ 4.60
25,O=C1COc2cc(S(=O)(=O)NCc3ccc(OC(F)(F)F)cc3)c(Br)cc2N1 [BC19392],≤ 4.60
26,O=C1COc2cc(S(=O)(=O)NCc3ccc(F)cc3F)c(Br)cc2N1 [BC19393],≤ 4.60

# Source: patent publication US20240000806A1, “METHODS AND MATERIALS FOR INHIBITING CB1 ACTIVITY” (University of Pittsburgh - Of the Commonwealth System of …, priority 2020, published 2024)
